Values after ≈ are worked out from the molar mass of the structure shown.
Key:
[1] = tested on: S. aureus 6690; assay: Antibacterial microplate agar assay (MIC); assay type: cell-based, Staphylococcus aureus; conditions: PYG agar, pH 6, 24 hours, 28° to 37° C.
Description: (§1) The antibacterial assay is a standard microplate agar assay using PYG agar, pH 6. PYG agar consists of the following ingredients:
(§2) The MIC is determined by standard methods. The inocula are overnight cultures of the test organisms, diluted so that the final population contains approximately 10^5 cells/ml. The agar plates are incubated at 28° to 37° C. for 24 hours. The lowest antibiotic concentration which allows no growth=MIC or minimum inhibitory concentration.
(§3) Assay. The antibacterial assay is a standard microplate agar assay using PYG agar, pH 6. The MIC is determined by standard methods. The inocula are overnight cultures of the test organisms, diluted so that the final population contains approximately 10^5 cells/ml. The agar plates are incubated at 28° to 37° C. for 24 hours. The lowest antibiotic concentration which allows no growth=MIC or minimum inhibitory concentration.

[2] = tested on: S. aureus 6685; assay: Antibacterial microplate agar assay (MIC); assay type: cell-based, Staphylococcus aureus; conditions: PYG agar, pH 6, 24 hours, 28° to 37° C.
Description: as §1, §2, §3

[3] = tested on: S. aureus UC 76; assay: Antibacterial microplate agar assay (MIC); assay type: cell-based, Staphylococcus aureus; conditions: PYG agar, pH 6, 24 hours, 28° to 37° C.
Description: as §1, §2, §3

[4] = tested on: E. coli 45; assay: Antibacterial microplate agar assay (MIC); assay type: cell-based; conditions: PYG agar, pH 6, 24 hours, 28° to 37° C.
Description: as §1, §2, §3

[5] = tested on: Ps. aeruginosa 95; assay: Antibacterial microplate agar assay (MIC); assay type: cell-based; conditions: PYG agar, pH 6, 24 hours, 28° to 37° C.
Description: as §1, §2, §3

[6] = tested on: Enterococcus sp. 701; assay: Antibacterial microplate agar assay (MIC); assay type: cell-based; conditions: PYG agar, pH 6, 24 hours, 28° to 37° C.
Description: as §1, §2, §3

[7] = tested on: K. pneumoniae 58; assay: Antibacterial microplate agar assay (MIC); assay type: cell-based; conditions: PYG agar, pH 6, 24 hours, 28° to 37° C.
Description: as §1, §2, §3

[8] = tested on: S. schottmuelleri 126; assay: Antibacterial microplate agar assay (MIC); assay type: cell-based; conditions: PYG agar, pH 6, 24 hours, 28° to 37° C.
Description: as §1, §2, §3

[9] = tested on: P. stuartii 6570; assay: Antibacterial microplate agar assay (MIC); assay type: cell-based; conditions: PYG agar, pH 6, 24 hours, 28° to 37° C.
Description: as §1, §2, §3

[10] = tested on: E. cloacae 6783; assay: Antibacterial microplate agar assay (MIC); assay type: cell-based; conditions: PYG agar, pH 6, 24 hours, 28° to 37° C.
Description: as §1, §2, §3

[11] = tested on: S. flexneri 143; assay: Antibacterial microplate agar assay (MIC); assay type: cell-based; conditions: PYG agar, pH 6, 24 hours, 28° to 37° C.
Description: as §1, §2, §3

[12] = tested on: S. marcescens 131; assay: Antibacterial microplate agar assay (MIC); assay type: cell-based; conditions: PYG agar, pH 6, 24 hours, 28° to 37° C.
Description: as §1, §2, §3

[13] = 60% aq. ethanol
[14] = tested on: L-1210; assay: Antitumor (in vitro) activity; assay type: cell-based; conditions: L-1210, in vitro
[15] = tested on: S. faecalis 694; assay: Antibacterial microplate agar assay (MIC); assay type: cell-based, Streptococcus faecalis; conditions: PYG agar, pH 6, 24 hours, 28° to 37° C.
Description: as §1, §2, §3

[16] = tested on: Gram-positive bacteria; assay: Antibacterial activity against Gram-positive bacteria; assay type: cell-based
Description: as §1, §2, §3

C/C=C(\N=C=S)C(=O)O[C@H]1[C@@H](O[C@H]2C[C@H](OC)[C@@](O)([C@H](C)OC(=O)C(C)C)[C@H](C)O2)[C@@H](O)[C@H]([C@@]2(O)CC(=O)C(=N)C(C(=O)O)=C2O)O[C@@H]1COC(C)=O [Paulomycin B]
Minimum Inhibitory Concentration [1]: 2.0 µg/mL
Minimum Inhibitory Concentration [2]: 0.50 µg/mL
Minimum Inhibitory Concentration [3]: 0.50 µg/mL
Minimum Inhibitory Concentration [4]: 250 µg/mL
Minimum Inhibitory Concentration [5]: 250 µg/mL
Minimum Inhibitory Concentration [6]: 31.2 µg/mL
Minimum Inhibitory Concentration [7]: 250 µg/mL
Minimum Inhibitory Concentration [8]: 500 µg/mL
Minimum Inhibitory Concentration [9]: 250 µg/mL
Minimum Inhibitory Concentration [10]: 500 µg/mL
Minimum Inhibitory Concentration [11]: 250 µg/mL
Minimum Inhibitory Concentration [12]: 250 µg/mL
pKa [13]: 7.4
ID50 [14]: 8.6 µg/mL (≈ 11.1 µM)
ID90 [14]: 21 µg/mL (≈ 27.2 µM)
Minimum Inhibitory Concentration [15]: 125 µg/mL
adversely affecting the growth of Gram-positive bacteria ([16]; for example Bacillus subtilis, Staphylococcus aureus, Streptococcus pyogenes and Streptococcus faecalis): adversely affecting the growth of Gram-positive bacteria
activity against various Gram-positive bacteria ([16]; in words): active against various Gram-positive bacteria

Reference: US4335108A, “Paulomycin A and B and preparation thereof” (The Upjohn Company, priority 1980, dated 1982)
